Results taken from patent US20240376097A1, “BCL-2 Inhibitor” (BeiGene Ltd., priority 2020, published 2024).
Read-outs that look alike come from different tables or passages of the source.

Key:
Format in all cases: binding
[1] = target: Recombinant human Bcl-2 protein (Homo sapiens (Human), UniProt P10415); experiment: Bcl-2 TR-FRET Assay
Method: Biological Example: Bcl-2 TR-FRET Assay
Compounds disclosed herein were tested for blocking of Bcl-2 protein with its ligand in an assay based on Time-Resolved Fluorescence Resonance Energy Transfer (TR-FRET) methodology. Recombinant human 0.05 nM Bcl-2 protein was pre-incubated with a serial dilution of compounds disclosed herein (top final concentration is 1 uM or 0.1 uM or 0.02 uM or 0.01 uM, 10 points) at room temperature for 0.5 hour in an assay buffer containing 20 mM potassium phosphate buffer, pH 7.5, 50 mM NaCl. 1 mM EDTA, 0.05% Tween-20, 0.01% BSA. Then the FITC labeled Bak peptide Ac-GQVGRQLAIIGDK(FITC)INR-amide (0.5 nM) and MAb Anti 6His Tb cryptate Gold were added to plate and further incubated at room temperature for 1 hour. The TR-FRET signals (337 nm-520 nm-490 nm) were read on BMG PHERAstar FSX instrument. The inhibition percentage of Bcl-2 interaction with its ligand in presence of increasing concentrations of compounds was calculated based on the TR-FRET signals. The IC50 for each compound was derived from fitting the data to the four-parameter logistic equation by Graphpad Prism software or Dotmatics.

[2] = target: recombinant human Bcl-2-G101V protein (Homo sapiens (Human), UniProt P10415, G101V); experiment: Bcl-2-G101V TR-FRET Assay; details: Bcl-2 G101V mutant, TR-FRET; read-out: Biochemical assay (IC50, nM) Bcl-2 G101V
Method: (§1) Biological Example: Bcl-2-G101V TR-FRET Assay
(§2) […]. The TR-FRET signals (ex337 nm, em490 nm/520 nm) were read on BMG PHERAstar FSX instrument. The inhibition percentage of Bcl-2-G101V interaction with its ligand in presence of increasing concentrations of compounds was calculated based on the ratio of fluorescence at 490 nm to that at 520 nm. The IC50 for each compound was derived from fitting the data to the four-parameter logistic equation by Graphpad Prism software or Dotmatics.

[3] = test system: recombinant human Bcl-2-G101V protein; experiment: Bcl-2-G101V TR-FRET Assay; details: for Ratio of Bcl-2 G101V/WT: ratio of biochemical IC50 Bcl-2 G101V / Bcl-2 WT
Method: as §1, §2

[4] = target: recombinant human Bcl-2 D103Y protein (Homo sapiens (Human), UniProt P10415, D103Y); experiment: Bcl-2-D103Y Biochemical Assay (TR-FRET); details: for Ratio of Bcl-2 D103Y/Bcl-2 WT: ratio of IC50
Method: Biological Example: Bcl-2-D103Y Biochemical Assay
as §2, with “Bcl-2 D103Y” for “Bcl-2-G101V”, “by” for “by Graphpad Prism software or”

[5] = Bcl-2 wild type, TR-FRET, read-out: Biochemical assay (IC50, nM) Bcl-2 WT

Compound: CC(C)c1ccccc1[C@H]1CN(C(C)C)CCN1C1CC2(CCN(c3ccc(C(=O)NS(=O)(=O)c4ccc(NC[C@H]5CC[C@](C)(O)CC5)c([N+](=O)[O-])c4)c(Oc4cnc5[nH]ccc5c4)c3)CC2)C1 (single isomer, unassigned) [Example 3b, 2-((1H-pyrrolo[2,3-b]pyridin-5-yl)oxy)-N-((4-((((1r,4r)-4-hydroxy-4-methylcyclohexyl)methyl)amino)-3-nitrophenyl)sulfonyl)-4-(2-((R or S)-4-isopropyl-2-(2-isopropylphenyl)piperazin-1-yl)-7-azaspiro[3.5]nonan-7-yl)benzamide]
- IC50 [1, 5]: 0.0083 nM
- IC50 [2]: 0.14 nM
- Ratio of Bcl-2 G101V/WT [3]: 16.9

Compound: CC(C)c1ccccc1[C@@H]1CN(Cc2cnn(C)c2)CCN1C1CC2(CCN(c3ccc(C(=O)NS(=O)(=O)c4ccc(NC[C@H]5CC[C@](C)(O)CC5)c([N+](=O)[O-])c4)c(Oc4cnc5[nH]ccc5c4)c3)CC2)C1 (single isomer, unassigned) [Example 22a, 2-((1H-pyrrolo[2,3-b]pyridin-5-yl)oxy)-N-((4-((((1r,4r)-4-hydroxy-4-methylcyclohexyl)methyl)amino)-3-nitrophenyl)sulfonyl)-4-(2-((R or S)-2-(2-isopropylphenyl)-4-((1-methyl-1H-pyrazol-4-yl)methyl)piperazin-1-yl)-7-azaspiro [3.5]nonan-7-yl)benzamide]
- Ratio of Bcl-2 G101V/WT [3]: 8.1
- ratio of Bcl-2 D103Y/Bcl-2 wt, compared with F91b in WO2019210828 ([4]; comparison in words): significantly lower
- Ratio of Bcl-2 D103Y/Bcl-2 WT [4]: 5.2

Compound: COc1ccc(CN2CCN(C3CC4(CCN(c5ccc(C(=O)NS(=O)(=O)c6ccc(NC[C@H]7CC[C@](C)(O)CC7)c([N+](=O)[O-])c6)c(Oc6cnc7[nH]cc(F)c7c6)c5)CC4)C3)[C@H](c3ccccc3C(C)C)C2)cc1 (single isomer, unassigned) [Example 95, 2-((3-fluoro-1H-pyrrolo[2,3-b]pyridin-5-yl)oxy)-N-((4-((((1r,4r)-4-hydroxy-4-methylcyclohexyl)methyl)amino)-3-nitrophenyl)sulfonyl)-4-(2-((R or S)-2-(2-isopropylphenyl)-4-(4-methoxybenzyl)piperazin-1-yl)-7-azaspiro[3.5]nonan-7-yl) benzamide]
- IC50 [1, 5]: 0.23 nM
- IC50 [2]: 0.38 nM
- Ratio of Bcl-2 G101V/WT [3]: 1.7

Compound: CC(C)c1ccccc1C1CN(C2CCOC2)CCN1C1CC2(CCN(c3ccc(C(=O)NS(=O)(=O)c4ccc(NC[C@H]5CC[C@](C)(O)CC5)c([N+](=O)[O-])c4)c(Oc4cnc5[nH]ccc5c4)c3)CC2)C1 (stereo partly shown) [Example 8, 2-((1H-pyrrolo[2,3-b]pyridin-5-yl)oxy)-N-((4-((((1r,4r)-4-hydroxy-4-methylcyclohexyl)methyl)amino)-3-nitrophenyl)sulfonyl)-4-(2-(2-(2-isopropylphenyl)-4-(tetrahydrofuran-3-yl)piperazin-1-yl)-7-azaspiro[3.5]nonan-7-yl)benzamide]
- IC50 [1, 5]: 0.02 nM
- IC50 [2]: 0.32 nM
- Ratio of Bcl-2 G101V/WT [3]: 16.0

Compound: COc1ccc(CN2CCN(C3CC4(CCN(c5ccc(C(=O)NS(=O)(=O)c6ccc(NC[C@H]7CC[C@](C)(O)CC7)c([N+](=O)[O-])c6)c(Oc6cnc7[nH]ccc7c6)c5)CC4)C3)C(c3ccccc3CC(C)C)C2)cc1 (stereo partly shown) [Example 35, 2-((1H-pyrrolo[2,3-b]pyridin-5-yl)oxy)-N-((4-((((1r,4r)-4-hydroxy-4-methylcyclohexyl)methyl)amino)-3-nitrophenyl)sulfonyl)-4-(2-(2-(2-isobutylphenyl)-4-(4-methoxybenzyl)piperazin-1-yl)-7-azaspiro[3.5]nonan-7-yl) benzamide]
- IC50 [1, 5]: 2.2 nM
- IC50 [2]: 163 nM
- Ratio of Bcl-2 G101V/WT [3]: 74.1

Compound: COc1ccc(CN2CCN(C3CC4(CCN(c5ccc(C(=O)NS(=O)(=O)c6ccc(NC[C@H]7CC[C@](C)(O)CC7)c([N+](=O)[O-])c6)c(Oc6cnc7[nH]ccc7c6)c5)CC4)C3)C(c3ccccc3C3CCCC3)C2)cc1 (stereo partly shown) [Example 36, 2-((1H-pyrrolo[2,3-b]pyridin-5-yl)oxy)-4-(2-(2-(2-cyclopentylphenyl)-4-(4-methoxybenzyl)piperazin-1-yl)-7-azaspiro[3.5]nonan-7-yl)-N-((4-((((1r,4r)-4-hydroxy-4-methylcyclohexyl)methyl)amino)-3-nitrophenyl)sulfonyl)benzamide]
- IC50 [1, 5]: 0.58 nM
- IC50 [2]: 16 nM
- Ratio of Bcl-2 G101V/WT [3]: 27.6

Compound: CC(C)c1ccccc1C1CN(Cc2cccc3c2CCCC3)CCN1C1CC2(CCN(c3ccc(C(=O)NS(=O)(=O)c4ccc(NC[C@H]5CC[C@](C)(O)CC5)c([N+](=O)[O-])c4)c(Oc4cnc5[nH]ccc5c4)c3)CC2)C1 (stereo partly shown) [Example 55, 2-((1H-pyrrolo[2,3-b]pyridin-5-yl)oxy)-N-((4-((((1r,4r)-4-hydroxy-4-methylcyclohexyl)methyl)amino)-3-nitrophenyl)sulfonyl)-4-(2-(2-(2-isopropylphenyl)-4-((5,6,7,8-tetrahydronaphthalen-1-yl)methyl)piperazin-1-yl)-7-azaspiro[3.5]nonan-7-yl)benzamide]
- IC50 [1, 5]: 3.8 nM
- IC50 [2]: 12 nM
- Ratio of Bcl-2 G101V/WT [3]: 3.2

Compound: CC(C)c1ccccc1C1CN(Cc2cccc3c2CCCC3)CCN1C1CC2(CCN(c3ccc(C(=O)NS(=O)(=O)c4ccc(NCC5CCOCC5)c([N+](=O)[O-])c4)c(Oc4cnc5[nH]ccc5c4)c3)CC2)C1 (stereo not shown) [Example 56, 2-((1H-pyrrolo[2,3-b]pyridin-5-yl)oxy)-4-(2-(2-(2-isopropylphenyl)-4-((5,6,7,8-tetrahydronaphthalen-1-yl)methyl)piperazin-1-yl)-7-azaspiro[3.5]nonan-7-yl)-N-((3-nitro-4-(((tetrahydro-2H-pyran-4-yl)methyl)amino)phenyl)sulfonyl) benzamide]
- IC50 [1, 5]: 2.7 nM
- IC50 [2]: 13 nM
- Ratio of Bcl-2 G101V/WT [3]: 4.8

Compound: COc1ccc(C(=O)N2CCN(C3CC4(CCN(c5ccc(C(=O)NS(=O)(=O)c6ccc(NC[C@H]7CC[C@](C)(O)CC7)c([N+](=O)[O-])c6)c(Oc6cnc7[nH]ccc7c6)c5)CC4)C3)C(c3ccccc3C(C)C)C2)cc1 (stereo partly shown) [Example 61, 2-((1H-pyrrolo[2,3-b]pyridin-5-yl)oxy)-N-((4-((((1r,4r)-4-hydroxy-4-methylcyclohexyl)methyl)amino)-3-nitrophenyl)sulfonyl)-4-(2-(2-(2-isopropylphenyl)-4-(4-methoxybenzoyl)piperazin-1-yl)-7-azaspiro[3.5]nonan-7-yl) benzamide]
- ratio of IC50 of Bcl-2 G101V/Bcl-2 wt, compared with Example F132b in WO2019210828 and ABT-199 (venetoclax) ([3]; comparison in words): much lower

Compound: CC#CC(c1ccccc1)N1CCN(C2CC3(CCN(c4ccc(C(=O)NS(=O)(=O)c5ccc(NC[C@H]6CC[C@](C)(O)CC6)c([N+](=O)[O-])c5)c(Oc5cnc6[nH]ccc6c5)c4)CC3)C2)C(c2ccccc2C(C)C)C1 (stereo partly shown) [Example 63]
- IC50 [1, 5]: 1.4 nM
- IC50 [2]: 20 nM
- Ratio of Bcl-2 G101V/WT [3]: 14.3

Compound: COc1ccc(CN2CCN(C3CC4(CCN(c5ccc(C(=O)NS(=O)(=O)c6ccc(NCC7CCC(CO)O7)c([N+](=O)[O-])c6)c(Oc6cnc7[nH]ccc7c6)c5)CC4)C3)[C@H](c3ccccc3C(C)C)C2)cc1 (stereo partly drawn) [Example 220, 2-((1H-pyrrolo[2,3-b]pyridin-5-yl)oxy)-N-((4-(((5-(hydroxymethyl)tetrahydrofuran-2-yl)methyl)amino)-3-nitrophenyl)sulfonyl)-4-(2-((R)-2-(2-isopropylphenyl)-4-(4-methoxybenzyl)piperazin-1-yl)-7-azaspiro[3.5]nonan-7-yl) benzamide]
- IC50 ([1]; wild type Bcl-2, unit inferred, read-out: Bcl-2 WT): 0.044 nM
- IC50 ([4]; TR-FRET, FITC labeled Bak peptide): 0.077 nM
- Ratio of Bcl-2 D103Y/Bcl-2 WT [4]: 1.8
